# Source: patent US9302999B2, “Substituted triazoles as herbicides” (E. I. DU PONT DE NEMOURS AND COMPANY, priority 2012, dated 2016)
# Legend:
# Type in all cases: in vivo
# [1] = test system: johnsongrass (Sorghum halepense); experiment: Test C pre-/postemergence: johnsongrass
# Procedure, shortened: (§1)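 Preemergence on seeds in loam/sand, postemergence on 2–18 cm (1–4-leaf) plants in peat-based medium; compounds in non-phytotoxic solvent with surfactant. After 13–15 days in greenhouse, visual rating versus controls, 0 (no effect) to 100 (complete control).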
# [2] = test system: ducksalad (Heteranthera limosa); experiment: Test B flooded paddy: ducksalad; details: Flood; 250 g ai/ha; applied to paddy water at 2-leaf stage; visually evaluated after 13 to 15 days
# Procedure, shortened: (§2)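 Plants were grown to the 2-leaf stage and pots flooded to 3 cm above soil. Compounds were applied directly into the paddy water, with depth kept for the test. After 13–15 days in greenhouse, response was rated visually against controls on a 0 (no effect) to 100 (complete control) scale.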
# [3] = test system: ryegrass, Italian (Italian ryegrass, Lolium multiflorum); experiment: Test C pre-/postemergence: ryegrass, Italian
# Procedure, shortened: as §1
# [4] = test system: ragweed (common ragweed, Ambrosia elation); experiment: Test C pre-/postemergence: ragweed
# Procedure, shortened: as §1
# [5] = test system: foxtail, giant (giant foxtail, Setaria faberii); experiment: Test A pre-/postemergence: foxtail, giant
# Procedure, shortened: (§3)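 Soil medium was loam blended with sand; treatments pre- and postemergence were applied concurrently, postemergence at one- to two-leaf stage. Approximately ten days in greenhouse preceded visual comparison with untreated controls, scored 0 (no effect) to 100 (complete control).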
# [6] = test system: chickweed (common chickweed, Stellaria media); experiment: Test C postemergence: chickweed
# Procedure, shortened: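 Crop and weed plants were grown in peat-vermiculite medium and treated postemergence at the 1- to 4-leaf stage (2-18 cm tall). After 13-15 days in a greenhouse, each species was rated visually against untreated controls on a 0-100 scale (0 no effect, 100 complete control).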
# soybean (Glycine max) = experiment: Test C pre-/postemergence: soybean
# Procedure, shortened: as §1
# kochia (Kochia scoparia) = experiment: Test C pre-/postemergence: kochia
# Procedure, shortened: as §1
# [7] = test system: morningglory (Ipomoea spp.); experiment: Test A pre-/postemergence: morningglory; details: for Morningglory plant response rating: visual rating on 0 to 100 scale (0 no effect, 100 complete control), approximately ten days
# Procedure, shortened: as §3
# [8] = test system: sedge, umbrella (small-flower umbrella sedge Cyperus difformis); experiment: Test B flooded paddy: sedge, umbrella; details: Flood; 250 g ai/ha; applied to paddy water at 2-leaf stage; visually evaluated after 13 to 15 days
# Procedure, shortened: as §2
# corn (Zea mays) = experiment: Test A pre-/postemergence: corn
# Procedure, shortened: as §3
# [9] = Postemergence, 31 g ai/ha, scale 0 to 100 (0 no effect, 100 complete control)
# [10] = Postemergence, 62 g ai/ha, scale 0 to 100 (0 no effect, 100 complete control)
# [11] = Postemergence, 125 g ai/ha, scale 0 to 100, 0 no effect, 100 complete control
# [12] = Postemergence, 250 g ai/ha, scale 0 to 100
# [13] = Preemergence, 31 g ai/ha, scale of 0 to 100, 0 is no effect, 100 is complete control
# [14] = Preemergence, 62 g ai/ha, scale of 0 to 100, 0 is no effect, 100 is complete control
# [15] = Preemergence, 125 g ai/ha, scale 0 to 100, 0 no effect, 100 complete control
# [16] = Preemergence, 250 g ai/ha, scale 0 to 100, 0 no effect, 100 complete control
# [17] = Postemergence, 125 g ai/ha, 0 to 100 scale, 0 is no effect, 100 is complete control
# [18] = Postemergence, 500 g ai/ha, visual rating on 0 to 100 scale (0 no effect, 100 complete control), approximately ten days
# [19] = Preemergence, 125 g ai/ha, 0 to 100 scale where 0 is no effect and 100 is complete control
# [20] = Preemergence, 500 g ai/ha, 0 to 100 scale (0 no effect, 100 complete control)
# [21] = 31 g ai/ha, scale 0 to 100 (0 no effect, 100 complete control)
# [22] = 62 g ai/ha, scale 0 to 100 (0 no effect, 100 complete control)
# [23] = 125 g ai/ha, scale 0 to 100, 0 no effect, 100 complete control
smiles,measurement,setting,value
CCc1nn(-c2ccc(F)cc2)nc1Cc1ccnc(C(F)(F)F)c1 [Compound 154],"Plant response rating, Johnsongrass",[1]; [9],10
same,"Plant response rating, Johnsongrass",[1]; [10],30
same,"Plant response rating, Johnsongrass",[1]; [11],65
same,"Plant response rating, Johnsongrass",[1]; [12],85
same,"Plant response rating, Johnsongrass",[1]; [13],40
same,"Plant response rating, Johnsongrass",[1]; [14],40
same,"Plant response rating, Johnsongrass",[1]; [15],90
same,"Plant response rating, Johnsongrass",[1]; [16],95
same,"Plant response rating, Ducksalad (0 to 100 scale, 0 is no effect, 100 is complete control)",[2],80
same,"Plant response rating, Ryegrass, Italian",[3]; [9],5
same,"Plant response rating, Ryegrass, Italian",[3]; [10],10
same,"Plant response rating, Ryegrass, Italian",[3]; [11],30
same,"Plant response rating, Ryegrass, Italian",[3]; [12],35
same,"Plant response rating, Ryegrass, Italian",[3]; [13],10
same,"Plant response rating, Ryegrass, Italian",[3]; [14],30
same,"Plant response rating, Ryegrass, Italian",[3]; [15],90
same,"Plant response rating, Ryegrass, Italian",[3]; [16],90
same,"Plant response rating, Ragweed",[4]; [9],30
same,"Plant response rating, Ragweed",[4]; [10],30
same,"Plant response rating, Ragweed",[4]; [11],30
same,"Plant response rating, Ragweed",[4]; [12],40
same,"Plant response rating, Ragweed",[4]; [13],0
same,"Plant response rating, Ragweed",[4]; [14],0
same,"Plant response rating, Ragweed",[4]; [15],50
same,"Plant response rating, Ragweed",[4]; [16],70
same,"Plant response rating, Foxtail, Giant",[5]; [17],90
same,"Foxtail, Giant plant response rating",[5]; [18],100
same,"Plant response rating, Foxtail, Giant",[5]; [19],100
same,"Plant response rating, Foxtail, Giant",[5]; [20],100
same,"Plant response rating, Chickweed",[6]; [21],85
same,"Plant response rating, Chickweed",[6]; [22],85
same,"Plant response rating, Chickweed",[6]; [23],95
same,"Plant response rating, Chickweed","[6]; 250 g ai/ha, scale 0 to 100",95
same,"Plant response rating, Soybean",soybean (Glycine max); [9],45
same,"Plant response rating, Soybean",soybean (Glycine max); [10],60
same,"Plant response rating, Soybean",soybean (Glycine max); [11],65
same,"Plant response rating, Soybean",soybean (Glycine max); [12],75
same,"Plant response rating, Soybean",soybean (Glycine max); [13],0
same,"Plant response rating, Soybean",soybean (Glycine max); [14],0
same,"Plant response rating, Soybean",soybean (Glycine max); [15],15
same,"Plant response rating, Soybean",soybean (Glycine max); [16],15
same,"Plant response rating, Kochia",kochia (Kochia scoparia); [9],90
same,"Plant response rating, Kochia",kochia (Kochia scoparia); [10],90
same,"Plant response rating, Kochia",kochia (Kochia scoparia); [11],90
same,"Plant response rating, Kochia",kochia (Kochia scoparia); [12],95
same,"Plant response rating, Morningglory",[7]; [17],80
same,Morningglory plant response rating,"[7]; Postemergence, 500 g ai/ha",100
same,"Plant response rating, Morningglory",[7]; [19],20
same,"Plant response rating, Morningglory",[7]; [20],80
same,"Plant response rating, Sedge, Umbrella (0 to 100 scale, 0 is no effect, 100 is complete control)",[8],80
same,"Plant response rating, Corn",corn (Zea mays); [17],30
same,Corn plant response rating,corn (Zea mays); [18],80
same,"Plant response rating, Corn",corn (Zea mays); [19],20
same,"Plant response rating, Corn",corn (Zea mays); [20],70
Cc1nn(-c2ccc(C(F)(F)F)c(F)c2)nc1Oc1ccnc(C(F)(F)F)c1 [Compound 148],"Plant response rating, Johnsongrass",[1]; [9],20
same,"Plant response rating, Johnsongrass",[1]; [10],20
same,"Plant response rating, Johnsongrass",[1]; [11],55
same,"Plant response rating, Johnsongrass",[1]; [12],98
same,"Plant response rating, Johnsongrass",[1]; [13],15
same,"Plant response rating, Johnsongrass",[1]; [14],80
same,"Plant response rating, Johnsongrass",[1]; [15],98
same,"Plant response rating, Johnsongrass",[1]; [16],98
same,"Plant response rating, Ducksalad (0 to 100 scale, 0 is no effect, 100 is complete control)",[2],85
same,"Plant response rating, Ryegrass, Italian",[3]; [9],10
same,"Plant response rating, Ryegrass, Italian",[3]; [10],35
same,"Plant response rating, Ryegrass, Italian",[3]; [11],60
same,"Plant response rating, Ryegrass, Italian",[3]; [12],65
same,"Plant response rating, Ryegrass, Italian",[3]; [13],5
same,"Plant response rating, Ryegrass, Italian",[3]; [14],60
same,"Plant response rating, Ryegrass, Italian",[3]; [15],60
same,"Plant response rating, Ryegrass, Italian",[3]; [16],90
same,"Plant response rating, Ragweed",[4]; [9],65
same,"Plant response rating, Ragweed",[4]; [10],85
same,"Plant response rating, Ragweed",[4]; [11],85
same,"Plant response rating, Ragweed",[4]; [12],85
same,"Plant response rating, Ragweed",[4]; [13],15
same,"Plant response rating, Ragweed",[4]; [14],45
same,"Plant response rating, Ragweed",[4]; [15],55
same,"Plant response rating, Ragweed",[4]; [16],70
same,"Foxtail, Giant plant response rating",[5]; [17],80
same,"Foxtail, Giant plant response rating",[5]; [18],80
same,"Plant response rating, Foxtail, Giant",[5]; [19],100
same,"Plant response rating, Foxtail, Giant",[5]; [20],100
same,"Plant response rating, Chickweed",[6]; [21],75
same,"Plant response rating, Chickweed",[6]; [22],75
same,"Plant response rating, Chickweed",[6]; [23],90
same,"Plant response rating, Chickweed","[6]; 250 g ai/ha, scale 0 to 100",98
same,"Plant response rating, Soybean",soybean (Glycine max); [9],45
same,"Plant response rating, Soybean",soybean (Glycine max); [10],45
same,"Plant response rating, Soybean",soybean (Glycine max); [11],80
same,"Plant response rating, Soybean",soybean (Glycine max); [12],90
same,"Plant response rating, Soybean",soybean (Glycine max); [13],5
same,"Plant response rating, Soybean",soybean (Glycine max); [14],10
same,"Plant response rating, Soybean",soybean (Glycine max); [15],20
same,"Plant response rating, Soybean",soybean (Glycine max); [16],30
same,"Plant response rating, Kochia",kochia (Kochia scoparia); [9],80
same,"Plant response rating, Kochia",kochia (Kochia scoparia); [10],85
same,"Plant response rating, Kochia",kochia (Kochia scoparia); [11],85
same,"Plant response rating, Kochia",kochia (Kochia scoparia); [12],95
same,"Plant response rating, Kochia",kochia (Kochia scoparia); [13],40
same,"Plant response rating, Kochia",kochia (Kochia scoparia); [14],40
same,"Plant response rating, Kochia",kochia (Kochia scoparia); [15],90
same,"Plant response rating, Kochia",kochia (Kochia scoparia); [16],95
same,"Plant response rating, Morningglory",[7]; [17],80
same,Morningglory plant response rating,"[7]; Postemergence, 500 g ai/ha",90
same,"Plant response rating, Morningglory",[7]; [19],40
same,"Plant response rating, Morningglory",[7]; [20],90
same,"Plant response rating, Sedge, Umbrella (0 to 100 scale, 0 is no effect, 100 is complete control)",[8],85
same,Corn plant response rating,corn (Zea mays); [17],20
same,Corn plant response rating,corn (Zea mays); [18],40
same,"Plant response rating, Corn",corn (Zea mays); [19],10
same,"Plant response rating, Corn",corn (Zea mays); [20],20
